Laboratory results from US20070280946A1, “Antibody to 5' -Deoxy-5' - Methylthioadenosine And Uses Thereof” (priority 2004, published 2007).

Legend:
[1] = system: interaction of proteoglycan units with collagen; details: column of Sepharose 4B-collagen loaded with proteoglycan subunits; cited from earlier work
[2] = target: T1, alkaline phosphatase produced from cartilage (Homo sapiens, UniProt P05186); details: cited from earlier work
T1 sequence (P05186 18-501): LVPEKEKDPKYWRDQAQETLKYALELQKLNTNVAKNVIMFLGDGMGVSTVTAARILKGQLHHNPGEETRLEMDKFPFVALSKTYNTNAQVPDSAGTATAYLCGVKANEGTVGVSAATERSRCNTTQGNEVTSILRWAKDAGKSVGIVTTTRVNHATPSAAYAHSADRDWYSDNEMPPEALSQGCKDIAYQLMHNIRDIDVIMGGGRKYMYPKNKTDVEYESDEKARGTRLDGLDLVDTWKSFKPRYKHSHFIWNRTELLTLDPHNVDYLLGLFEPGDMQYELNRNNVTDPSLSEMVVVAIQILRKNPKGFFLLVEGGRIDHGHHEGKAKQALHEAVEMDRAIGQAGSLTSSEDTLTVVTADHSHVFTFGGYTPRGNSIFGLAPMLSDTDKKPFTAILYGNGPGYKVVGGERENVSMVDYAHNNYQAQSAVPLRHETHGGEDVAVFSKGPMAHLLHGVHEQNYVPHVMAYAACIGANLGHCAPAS

spermidine synthase [3] = target: T2, spermidine synthase (Homo sapiens, UniProt P19623); experiment: Activity measurement of spermidine synthase by HTRF; assay type: biochemical; details: measured by HTRF; read-out: IC50 value, inhibition of MTA production by SPDS
T2 construct: Human SPDS gene was amplified by PCR, inserted into an entry vector pENTR11; made in house; host or cells: HEK293 cells (transient transfection, Lipofectamine 2000)
T2 sequence (P19623 1-302): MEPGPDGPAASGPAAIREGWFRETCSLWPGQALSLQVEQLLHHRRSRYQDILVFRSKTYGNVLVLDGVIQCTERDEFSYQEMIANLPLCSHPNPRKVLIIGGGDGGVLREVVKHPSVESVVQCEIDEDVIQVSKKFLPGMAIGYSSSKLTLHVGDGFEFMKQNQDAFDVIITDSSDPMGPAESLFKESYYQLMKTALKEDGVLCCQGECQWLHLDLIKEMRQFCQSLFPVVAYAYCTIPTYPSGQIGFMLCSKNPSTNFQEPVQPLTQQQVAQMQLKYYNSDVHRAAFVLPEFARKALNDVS
Protocol: 10 μL of spermidine synthase diluted with buffer C was added into 384-well assay plate (black, Corning). Then, to the plate was added 10 μl of the above substrate mixture, and reaction was conducted at room temperature. […] Then, each well was added with 20 μl of europium cryptate-labeled anti-MTA-7H8 antibody made to 288 ng/ml with buffer D, and the mixture was reacted for 16 hours at room temperature. Fluorescence of each well was measured by Rubyster (BMG Labtechnologis). An amount of MTA in each well was calculated from a standard curve, and converted to an amount of MTA per an enzyme amount and a reaction time, which was an enzyme activity. In FIG. 4, open circles represent reactivity to dcSAM and filled circles represent reactivity to MTA. […] It was confirmed that a production amount of MTA was increased depending on a concentration of spermidine synthase and a reaction time. […] By detecting a production amount of MTA according to the present method, an inhibition effect of the test substance was measured.

spermidine synthase [4] = target: T2, spermidine synthase; experiment: Activity measurement of spermidine synthase by ELISA; assay type: biochemical; details: measured by ELISA; read-out: IC50 value, inhibition of MTA production by SPDS
Protocol: The amount of MTA in each well was calculated from the competitive curve described above, and the produced amount of MTA per an enzyme amount and a reaction time was determined to be defined as an enzyme activity. It was confirmed that a production amount of MTA was increased depending on a concentration of spermidine synthase and a reaction time. […] Pharma., 1991.). […] By detecting a production amount of MTA according to the present method, an inhibition effect of the test substance was measured.

spermidine synthase [5] = details: Shirahata et al., Biochem. Pharma., 1991; read-out: IC50 value in a publication; cited from earlier work

Structure (SMILES)	capacity of displacing proteoglycan subunits from the column [1]	proteoglycan subunits removed from the column [1]	effect on activity of alkaline phosphatase produced from cartilage [2]	IC50 (spermidine synthase [3]) [µM]	IC50 (spermidine synthase [4]) [µM]	IC50 (spermidine synthase [5]) [µM]
NCCCCNCCCN [spermidine]	showed the capacity of displacing proteoglycan subunits	about 90%	increased the activity	–	–	–
NCCCCN [putrescine]	without effect	–	–	–	–	–
NCCCNCCCCNCCCN [spermine]	without effect	–	increased the activity	–	–	–
CC1CCC(N)CC1 (stereo not drawn) [4-methylcyclohexylamine]	–	–	–	1.1	1	1.7
